Patent US20170246210A1, “EX-VIVO INDUCED REGULATORY MESENCHYMAL STEM CELLS OR MYELOID-DERIVED SUPPRESSOR CELLS AS IMMUNE MODULATORS” (HADASIT MEDICAL RESEARCH SERVICES & DEVELOPMENT LTD, priority 2014, published 2017)

Key:
mMSCs [1] = assay: qPCR expression analysis in treated mouse MSCs; format: cell-based; settings: for IL-6 mRNA expression: combination treatments, with/without 10 μM CH-223191; for COX2 mRNA expression: qPCR, combinations of TGFβ, IFNγ, kynurenine
Method: MSCs isolation and culture. Mouse MSCs (mMSCs) were obtained from the bone marrow (BM) of C57BL/6 mice. BM cells were cultured at a concentration of 1*10^6 cells/ml in Mesencult basal medium supplemented with MSC stimulatory supplements (StemCell Technologies, Vancouver, BC), at 37° C. with 10% CO2. After 2-3 passages, the cells were harvested and CD11b^+ cells were depleted by EasySep® cell separation kit (StemCell Technologies, Vancouver, BC). Cells from 3 different lines were used for experiments after 5-20 passages.
(§1) TCT MSCs were treated with 40pM hTGFβ (PeproTech, Israel) for 24 h, and then with a cocktail of 40 pM hTGFβ, 100 ng/ml h/mIFNγ (PeproTech, Israel) and 150 μM Kynurenine (Sigma, Switzerland) for an additional 24 h before they were used for experiments.
RNA extraction and PCR analysis. Total cellular RNA was extracted using RNeasy® Mini Kit columns (QIAGEN) according to the manufacturer's protocols. 1 μg of total RNA was used to synthesize cDNA using High-Capacity cDNA kit (Applied Biosystems) following the supplier's instructions. Detection of transcript levels of iNOS, IDO, COX2, IL-6, CYP1a1 and CYP1b1, were performed using the TaqMan Gene Expression Assay Kit (Applied Biosystems), using HPRT-1 as a reference. All primers were purchased from Applied Biosystems. Real-Time PCR reactions were conducted using StepOne Plus (Applied Biosystems). Data was analyzed by StepOne Software version 2.2 (Applied Biosystems). […]

hMSCs [2] = assay: qPCR expression analysis in treated human MSCs; format: cell-based; settings: for upregulation of COX2 by kynurenine: human MSCs, presence or absence of 10 μM CH-223191
Method: Human MSCs (hMSCs). Bone marrow for hMHC was obtained from 17 adult healthy donors, males and females, following informed consent and under institutional Helsinki approval; hMSCs were cultured as previously described and the cells were used for experiments after 3-6 passages (Resnick, Barkats et al. 2013). TCT MSCs were treated with 40pM hTGFβ (PeproTech, Israel) for 24 h, and then with a cocktail of 40 pM hTGFβ, 100 ng/ml h/mIFNγ (PeproTech, Israel) and 150 μM Kynurenine (Sigma, Switzerland) for an additional 24 h before they were used for experiments. RNA extraction and PCR analysis. Total cellular RNA was extracted using RNeasy® Mini Kit columns (QIAGEN) according to the manufacturer's protocols. 1 μg of total RNA was used to synthesize cDNA using High-Capacity cDNA kit (Applied Biosystems) following the supplier's instructions. Detection of transcript levels of iNOS, IDO, COX2, IL-6, CYP1a1 and CYP1b1, were performed using the TaqMan Gene Expression Assay Kit (Applied Biosystems), using HPRT-1 as a reference. All primers were purchased from Applied Biosystems. Real-Time PCR reactions were conducted using StepOne Plus (Applied Biosystems). Data was analyzed by StepOne Software version 2.2 (Applied Biosystems).

mMSCs [3] = assay: FACS analysis of surface expression on mouse MSCs; format: cell-based; settings: for EGFR surface expression: kynurenine 5 hours, with/without 10 μM CH-223191 pre-treatment 16 hours; for MHC I expression: FACS
Method: as §1
(§2) FACS analysis. The phenotype of the MSCs was analyzed by FACS using anti-CD29-PB and anti-hCD45-FITC (Biolegend), anti-CD11b-APC, anti-CD44-PE and anti-mCD45-FITC (SouthernBiotech), anti-CD105-PB, anti-CD73-PE, anti-CD90-PE and anti-Sca1-PE (eBioscience), anti-CD44-V450, anti-CD105-APC, anti-HLA DR-APC and anti-HLA ABC-PE (BD Bioscience) antibodies. The expression level of PD-L1 in mMSCs was analyzed by FACS with anti-B7-H1-PE (PD-L1) (eBioscience). To analyze EGFR internalization in kynurenine treated mMSCs, mMSCs were cultured in the presence of 10 μM CH223191 (Merck-Millipore) for 16 hours and then kynurenine was added for an additional 5 hours. EGFR expression was analyzed by FACS using anti-EGFR-PE (Bioss). FACS was performed using the aMACSQuant analyzer (Miltenyi Biotech, Germany) and the data was analyzed using FCS Express V3 software.

[4] = molecular target: T1, aryl hydrocarbon receptor (AhR) (Mus musculus, UniProt P30561); assay: AhR activation in mouse MSCs (qPCR of AhR dependent genes Cyp1a1, Cyp1b1); format: cell-based
T1 construct: Mouse and human MSCs were obtained from C57BL/6 mice and healthy donor BM respectively; endogenous in cells; host or cells: primary mouse MSCs from C57BL/6 mice
T1 sequence (P30561 10-805 limits assumed): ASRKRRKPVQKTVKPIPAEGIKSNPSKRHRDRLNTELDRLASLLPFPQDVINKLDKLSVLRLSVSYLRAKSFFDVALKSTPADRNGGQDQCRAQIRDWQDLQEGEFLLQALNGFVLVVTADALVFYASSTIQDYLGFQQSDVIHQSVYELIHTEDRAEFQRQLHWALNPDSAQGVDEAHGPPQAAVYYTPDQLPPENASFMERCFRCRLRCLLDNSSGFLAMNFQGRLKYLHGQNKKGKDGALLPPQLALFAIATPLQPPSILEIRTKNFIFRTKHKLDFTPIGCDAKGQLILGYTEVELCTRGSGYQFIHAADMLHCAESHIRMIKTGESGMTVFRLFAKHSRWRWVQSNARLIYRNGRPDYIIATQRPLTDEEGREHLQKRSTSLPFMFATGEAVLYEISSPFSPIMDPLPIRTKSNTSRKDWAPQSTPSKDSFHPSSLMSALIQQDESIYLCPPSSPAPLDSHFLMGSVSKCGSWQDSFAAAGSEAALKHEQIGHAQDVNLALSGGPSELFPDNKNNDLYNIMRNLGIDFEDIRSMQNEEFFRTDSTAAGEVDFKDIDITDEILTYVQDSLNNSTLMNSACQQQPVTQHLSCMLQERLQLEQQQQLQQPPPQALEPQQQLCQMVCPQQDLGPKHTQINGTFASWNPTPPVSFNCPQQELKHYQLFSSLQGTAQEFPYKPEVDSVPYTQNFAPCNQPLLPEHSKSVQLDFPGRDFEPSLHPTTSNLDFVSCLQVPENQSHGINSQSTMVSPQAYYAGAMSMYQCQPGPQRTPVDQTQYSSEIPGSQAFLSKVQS
Method: (§3) RNA extraction and PCR analysis. Total cellular RNA was extracted using RNeasy® Mini Kit columns (QIAGEN) according to the manufacturer's protocols. 1 μg of total RNA was used to synthesize cDNA using High-Capacity cDNA kit (Applied Biosystems) following the supplier's instructions. Detection of transcript levels of iNOS, IDO, COX2, IL-6, CYP1a1 and CYP1b1, were performed using the TaqMan Gene Expression Assay Kit (Applied Biosystems), using HPRT-1 as a reference. All primers were purchased from Applied Biosystems. Real-Time PCR reactions were conducted using StepOne Plus (Applied Biosystems). Data was analyzed by StepOne Software version 2.2 (Applied Biosystems).
(§4) To evaluate whether kynurenine activates AhR in mMSCs, the mRNA of treated/non-treated MSCs were tested for the expression level of two AhR dependent genes, Cyp1a1 and Cyp1b1. […] To ascertain that the up-regulation of these genes is AhR dependent, MSCs were treated with kynurenine for 24 hours in the presence/absence of the AhR antagonist CH-223191. The up-regulation of Cyp1a1 by kynurenine is inhibited in the presence of the antagonist both in mouse and human MSCs (previous FIGS. 9B, C).

[5] = molecular target: T2, aryl hydrocarbon receptor (AhR) (Homo sapiens, UniProt P35869); assay: AhR activation in human MSCs (qPCR of AhR dependent gene Cyp1a1); format: cell-based
T2 construct: Mouse and human MSCs were obtained from C57BL/6 mice and healthy donor BM respectively; endogenous in cells; host or cells: primary human MSCs from healthy donor bone marrow
T2 sequence (P35869 11-848): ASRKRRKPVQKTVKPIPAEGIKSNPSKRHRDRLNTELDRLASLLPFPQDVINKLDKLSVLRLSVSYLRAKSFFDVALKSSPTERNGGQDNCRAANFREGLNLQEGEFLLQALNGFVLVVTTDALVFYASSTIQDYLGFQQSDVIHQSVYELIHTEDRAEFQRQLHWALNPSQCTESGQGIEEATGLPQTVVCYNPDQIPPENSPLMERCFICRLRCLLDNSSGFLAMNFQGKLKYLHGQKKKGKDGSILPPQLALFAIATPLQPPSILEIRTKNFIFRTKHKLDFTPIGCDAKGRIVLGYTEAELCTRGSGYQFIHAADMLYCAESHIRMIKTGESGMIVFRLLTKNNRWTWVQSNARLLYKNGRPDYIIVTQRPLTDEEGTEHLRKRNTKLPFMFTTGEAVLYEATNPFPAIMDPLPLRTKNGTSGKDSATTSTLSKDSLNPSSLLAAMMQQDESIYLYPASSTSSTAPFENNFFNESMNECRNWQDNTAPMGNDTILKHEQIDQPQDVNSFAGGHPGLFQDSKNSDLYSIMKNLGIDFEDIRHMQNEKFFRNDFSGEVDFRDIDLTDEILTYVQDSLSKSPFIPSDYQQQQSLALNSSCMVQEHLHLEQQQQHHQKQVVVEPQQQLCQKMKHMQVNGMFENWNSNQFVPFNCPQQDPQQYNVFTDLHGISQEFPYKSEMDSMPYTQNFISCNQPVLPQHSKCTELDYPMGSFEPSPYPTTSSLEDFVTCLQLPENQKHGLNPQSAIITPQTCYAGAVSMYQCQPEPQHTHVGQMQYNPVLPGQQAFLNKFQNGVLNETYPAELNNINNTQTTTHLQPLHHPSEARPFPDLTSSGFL
Method: as §3, §4

mMSCs [6] = assay: ELISA on supernatants of treated mMSCs; format: cell-based, mouse
Method: ELISA. Quantification of PGE2 in supernatants collected from treated mMSCs and from co-cultures with splenocytes after 72 hours of culture, was performed by competitive enzyme-linked immunosorbent assay (ELISA) technique using a commercially available ELISA kit (R&D Systems, Minn., USA). IL-6, IL-17A and IFNγ in supernatants collected from treated mMSCs and/or from co-cultures with splenocytes/PBMCs were quantified using the ELISA Ready SET Go kits (eBioscience, San Diego, Calif., USA), according to the manufacturer's instructions. All determinations were made in triplicates.

hMSCs [7] = assay: FACS analysis of surface expression on human MSCs; format: cell-based; settings: IFNγ induced
Method: as §1, §2

[8] = mouse MSCs, presence or absence of 10 μM CH-223191
[9] = kynurenine 24 hours, 10 μM CH-223191
[10] = murine MSCs, kynurenine alone vs non-treated

**Q.** What does the source list for Cc1ccccc1N=Nc1ccc(NC(=O)c2ccnn2C)c(C)c1 [CH-223191]?
**A.** IL-6 mRNA expression (mMSCs [1]; mMSCs): partially reversed the effects of kynurenine; enhanced expression of LIF (mMSCs [1]; [8]): reversed; upregulation of COX2 by kynurenine (mMSCs [1]; [8]): reversed; upregulation of COX2 by kynurenine (hMSCs [2]): reversed; EGFR surface expression (mMSCs [3]): restored EGFR expression on the cell surface; up-regulation of Cyp1a1 by kynurenine in presence of antagonist [4, 9]: inhibited; up-regulation of Cyp1a1 by kynurenine in presence of antagonist [5, 9]: inhibited

**Q.** How did the “IL-6 mRNA expression” value (mMSCs [1]; mMSCs) turn out when Nc1ccccc1C(=O)CC(N)C(=O)O (stereo not shown) [kynurenine] was run?
**A.** restricted this elevation

**Q.** And the “HO-1 mRNA expression” value (mMSCs [1]; mMSCs, kynurenine added to the DCT)?
**A.** significantly up-regulated

**Q.** And the “COX2 mRNA expression” value (mMSCs [1]; mMSCs)?
**A.** significant additive effects on the up-regulation

**Q.** And the “upregulation of COX2 by kynurenine” value (mMSCs [1]; [8])?
**A.** AhR dependent

**Q.** What about the COX2 expression (mMSCs [1]; [10]) of the same compound?
**A.** no effect

**Q.** And the IDO expression (mMSCs [1]; [10])?
**A.** no effect

**Q.** And the IL6 expression (mMSCs [1]; [10])?
**A.** no effect

**Q.** What about the iNOS expression (mMSCs [1]; [10]) of the same compound?
**A.** no effect

**Q.** And the “COX2 mRNA expression” value (hMSCs [2]; hMSCs, addition of kynurenine)?
**A.** significantly elevated

**Q.** What about the “upregulation of COX2 by kynurenine” value (hMSCs [2]) of the same compound?
**A.** AhR dependent

**Q.** And the EGFR surface expression (mMSCs [3])?
**A.** significantly reduced

**Q.** What about the IL-6 secretion (mMSCs [6]; mMSCs culture medium) of the same compound?
**A.** restricted this elevation

**Q.** What about the AhR activation [4] of the same compound?
**A.** activates

**Q.** And the AhR activation [5]?
**A.** activates

**Q.** Which “COX2 mRNA expression” value (mMSCs [1]; mMSCs) does the source give for IFNγ here?
**A.** no effect

**Q.** And the “MHC I expression” value (mMSCs [3])?
**A.** induces up-regulation

**Q.** What about the PGE2 secretion (mMSCs [6]; mMSCs supernatants) of the same compound?
**A.** no effect

**Q.** For TGFβ, which “COX2 mRNA expression” value (mMSCs [1]; mMSCs) is on record?
**A.** increased

**Q.** And the “MHC I expression” value (mMSCs [3])?
**A.** reduced the elevated expression

**Q.** And the “MHC I expression” value (hMSCs [7])?
**A.** reduced the IFNγ induced expression

**Q.** What about the “MHC II expression” value (hMSCs [7]) of the same compound?
**A.** reduced the IFNγ induced expression
